We go through 2 substances from ChEMBL document CHEMBL5346873, “Strategic modification of low-activity natural antimicrobial peptides confers antibacterial potential in vitro and in vivo” (Eur J Med Chem, 2023).

Series [1] can be described thus: Cytotoxicity against human HaCaT cells incubated for 24 hrs by MTS assay. It counts as toxicity, cell-based. The note with it: read-out: LD50. For orientation: Tetrazolium dyes change colour on reduction, which living cells bring about.
Series [2] relates to Vibrio vulnificus. The series can be described thus: Bactericidal activity against Vibrio vulnificus 204 at MIC after 5 mins. It counts as functional, organism-based.
Series [3] has as its system Vibrio vulnificus. Put plainly: Antibiofilm activity against Vibrio vulnificus V3 assessed as inhibition of biofilm formation at 25 to 100 ug/ml incubated for 24 hrs by crystal violet staining based assay. It counts as functional, organism-based. The note with it: dose 25-100 µg/ml.
In another series the test system is Streptococcus iniae. Put plainly: Antibacterial activity against Streptococcus iniae in presence of human serum. It counts as functional, organism-based.
Series [4] has as its system Pseudomonas aeruginosa. The series can be described thus: Additive antibacterial activity against Pseudomonas aeruginosa in presence of doxycycline by checkerboard microtiter plate assay. It counts as functional.
The test system of series [5] is Escherichia coli. Put plainly: Additive antibacterial activity against Escherichia coli in presence of doxycycline by checkerboard microtiter plate assay. It counts as functional.
In series [6] the test system is Klebsiella aerogenes. Put plainly: Additive antibacterial activity against Enterobacter aerogenes in presence of doxycycline by checkerboard microtiter plate assay. It counts as functional.
Series [7] deals with Klebsiella pneumoniae. The series can be described thus: Synergistic antibacterial activity against Klebsiella pneumoniae expressing NDM1 in presence of meropenem by checkerboard microtiter plate assay. It counts as functional.
Series [8] has as its system Pseudomonas aeruginosa. The series can be described thus: Additive antibacterial activity against Pseudomonas aeruginosa assessed as doxycycline MIC by checkerboard microtiter plate assay. It counts as functional.
For series [9], the system named is Escherichia coli. The series can be described thus: Additive antibacterial activity against Escherichia coli assessed as doxycycline MIC by checkerboard microtiter plate assay. It counts as functional.
The subject of series [10] is Klebsiella aerogenes. The series can be described thus: Additive antibacterial activity against Enterobacter aerogenes assessed as doxycycline MIC by checkerboard microtiter plate assay. It counts as functional.
In series [11] the test system is Klebsiella pneumoniae. The series can be described thus: Synergistic antibacterial activity against Klebsiella pneumoniae expressing NDM1 assessed as meropenem MIC by checkerboard microtiter plate assay. It counts as functional.
Series [12] relates to Pseudomonas aeruginosa. Put plainly: Additive antibacterial activity against Pseudomonas aeruginosa assessed as fractional inhibitory concentration in presence of doxycycline by checkerboard microtiter plate assay. It counts as functional.
Series [13] relates to Escherichia coli. The series can be described thus: Additive antibacterial activity against Escherichia coli assessed as fractional inhibitory concentration in presence of doxycycline by checkerboard microtiter plate assay. It counts as functional.
Series [14] relates to Klebsiella aerogenes. Put plainly: Additive antibacterial activity against Enterobacter aerogenes assessed as fractional inhibitory concentration in presence of doxycycline by checkerboard microtiter plate assay. It counts as functional.
The test system of series [15] is Klebsiella pneumoniae. The series can be described thus: Synergistic antibacterial activity against Klebsiella pneumoniae expressing NDM1 assessed as fractional inhibitory concentration in presence of meropenem by checkerboard microtiter plate assay. It counts as functional.
Series [16] has as its system Vibrio vulnificus. The series can be described thus: Antibacterial activity against Vibrio vulnificus infected in BALB/c mouse wound infection model assessed as reduction in bacterial infection at 6.25 ug per animal administered 12 hrs post infection and measured for 14 days. To be noted: dose 6.25 µg, time 14.0 day. It counts as functional, organism-based.
Series [17] deals with Vibrio vulnificus. The series can be described thus: Antibacterial activity against Vibrio vulnificus infected in BALB/c mouse wound infection model assessed as reduction in wound infection rate at 6.25 ug per animal administered 12 hrs post infection and measured for 14 days. It counts as functional, organism-based. The note with it: dose 6.25 µg, time 14.0 day.
Series [18] deals with Vibrio vulnificus. Put plainly: Antibacterial activity against Vibrio vulnificus infected in BALB/c mouse wound infection model assessed as survival at 6.25 ug per animal administered 12 hrs post infection and measured for 14 days. It counts as functional. The note with it: dose 6.25 µg; time 14 day.
In series [19] the test system is Vibrio vulnificus. Put plainly: Bactericidal activity against Vibrio vulnificus 204 at MIC after 30 mins. It counts as functional. To be noted: 0.5 h.
Series [20] relates to Pseudomonas aeruginosa. The series can be described thus: Antibacterial activity against Pseudomonas aeruginosa in presence of doxycycline. It counts as functional.
Series [21] concerns Pseudomonas aeruginosa. The series can be described thus: Antibacterial activity against Pseudomonas aeruginosa assessed as doxycycline MIC. It counts as functional.
Series [22] has as its system Pseudomonas aeruginosa. The series can be described thus: Antibacterial activity against Pseudomonas aeruginosa assessed as fractional inhibitory concentration in presence of doxycycline. It counts as functional.
For series [23], the system named is Escherichia coli. The series can be described thus: Synergistic antibacterial activity against Escherichia coli in presence of doxycycline. It counts as functional.
Series [24] relates to Escherichia coli. Put plainly: Synergistic antibacterial activity against Escherichia coli assessed as doxycycline MIC. It counts as functional.
For series [25], the system named is Escherichia coli. The series can be described thus: Synergistic antibacterial activity against Escherichia coli assessed as fractional inhibitory concentration in presence of doxycycline. It counts as functional.
Series [26] deals with Klebsiella aerogenes. Put plainly: Antibacterial activity against Enterobacter aerogenes in presence of doxycycline. It counts as functional.
Series [27] relates to Klebsiella aerogenes. Put plainly: Antibacterial activity against Enterobacter aerogenes assessed as doxycycline MIC. It counts as functional.
Series [28] relates to Klebsiella aerogenes. Put plainly: Antibacterial activity against Enterobacter aerogenes assessed as fractional inhibitory concentration. It counts as functional.
Series [29] has as its system Klebsiella pneumoniae. The series can be described thus: Additive antibacterial activity against Klebsiella pneumoniae expressing NDM1 in presence of meropenem. It counts as functional.
Series [30] concerns Klebsiella pneumoniae. Put plainly: Additive antibacterial activity against Klebsiella pneumoniae expressing NDM1 assessed as meropenem MIC. It counts as functional.
The subject of series [31] is Klebsiella pneumoniae. Put plainly: Additive antibacterial activity against Klebsiella pneumoniae expressing NDM1 assessed as fractional inhibitory concentration in presence of meropenem. It counts as functional.
Series [32] deals with Vibrio vulnificus. Put plainly: Antibacterial activity against Vibrio vulnificus infected in BALB/c mouse wound infection model assessed as reduction in bacterial infection at 12.5 ug per animal administered 12 hrs post infection and measured for 14 days. It counts as functional, organism-based. To be noted: dose 12.5 µg, time 14.0 day.
Series [33] concerns Vibrio vulnificus. The series can be described thus: Antibacterial activity against Vibrio vulnificus infected in BALB/c mouse wound infection model assessed as reduction in wound infection rate at 12.5 ug per animal administered 12 hrs post infection and measured for 14 days. It counts as functional, organism-based. The note with it: dose 12.5 µg, time 14.0 day.
The test system of series [34] is Vibrio vulnificus. Put plainly: Antibacterial activity against Vibrio vulnificus infected in BALB/c mouse wound infection model assessed as survival at 12.5 ug per animal administered 12 hrs post infection and measured for 14 days. It counts as functional. The note with it: dose 12.5 µg; time 14 day.

Calls of active or inactive are those of the source. The rule behind the calls is not given here.

Consider H-FKWKSVLKGVKGFVKGYF-OH, for which the CC50 at 24 h in series [1] is > 100 µg/mL. Moreover, the outcome with Vibrio vulnificus [2], in the series on Vibrio vulnificus [3], in the series with Streptococcus iniae and in the series with Vibrio vulnificus [16] was Active. Further, the MIC with Pseudomonas aeruginosa [4] came out at 12.5 µg/mL; in the series with Escherichia coli [5] it was 3.12 µg/mL; with Klebsiella aerogenes [6], 6.25 µg/mL; with Klebsiella pneumoniae [7] it was 6.25 µg/mL; with Pseudomonas aeruginosa [8], 6.25 µg/mL; in the series on Escherichia coli [9], 0.024 µg/mL. In addition, the MIC with Klebsiella aerogenes [10] turned out to be 0.78 µg/mL; in the series with Klebsiella pneumoniae [11], 3.12 µg/mL. Besides, the FIC in the series on Pseudomonas aeruginosa [12] amounted to 1; in the series on Escherichia coli [13], 0.53; in the series with Klebsiella aerogenes [14], 1; in the series with Klebsiella pneumoniae [15] it was 0.26. Moreover, the result in the series with Vibrio vulnificus [17] was inactive. The Activity in the series on Vibrio vulnificus [18] came out at 20%.

As to H-KKCIAKAILKKAKKLLKKLVNP-OH, in [1], the CC50 at 24 h is > 100 µg/mL. Besides, the Activity with Vibrio vulnificus [19] stood at 100%; in the series with Vibrio vulnificus [34], 80%. The outcome with Vibrio vulnificus [3] and in the series on Vibrio vulnificus [32] was Active. Moreover, the MIC was 25 µg/mL with Pseudomonas aeruginosa [20]; 1.56 µg/mL with Pseudomonas aeruginosa [21]; 6.25 µg/mL with Escherichia coli [23]; 0.195 µg/mL in the series on Escherichia coli [24]; 6.25 µg/mL in the series on Klebsiella aerogenes [26]; 0.048 µg/mL in the series with Klebsiella aerogenes [27]. Further, the MIC stood at 12.5 µg/mL with Klebsiella pneumoniae [29] and 3.12 µg/mL with Klebsiella pneumoniae [30]. Besides, the FIC came out at 1.12 in the series on Pseudomonas aeruginosa [22], 0.5 in the series on Escherichia coli [25], 1.03 in the series with Klebsiella aerogenes [28] and 0.51 in the series with Klebsiella pneumoniae [31]. Besides, the outcome in the series on Vibrio vulnificus [33] was inactive.

One may read the MIC as the lowest concentration that inhibits growth of the organism.
